According to US20080064668A1, “1,3-Diacylated, 26,27-Alkyl/Haloakyl Vitamin D3 Compounds and Methods of Use Thereof” (BioXell S.p.A., priority 2003, published 2008):

Assays:
RT4 = assay: Proliferation assay using bladder cancer cell lines, RT4; format: cell-based, human; conditions: Homo sapiens, RT-4, 72 h, 72 h culture, CyQuant proliferation assay
Method: (§1) Bladder cancer cell lines (T24, RT112, HT1376 and RT4 are human bladder cancer cell lines; NHEK are normal human keratinocytes) were obtained from the European Collection of Cell Cultures (Salisbury, UK). Cells were plated at 3×10^3 per well, in flat bottomed 96-well plates in 100 μl of DMEM medium containing: 5% Fetal Clone I, 50 μg/l gentamicin, 1 mM sodium pyruvate and 1% non-essential amino acids. After culturing for 24 h at 37° C. in 5% CO2, to allow cells to adhere to the plates, VDR ligands (compounds (2), (4), (5) and other vitamin D3 analogs as shown in Table 4) were added at concentrations ranging from 100 μM to 0.3 μM in 100 μl of above-mentioned complete medium. After a further 72 h of culture, cell proliferation was measured using a fluorescence-based proliferation assay kit. (CyQuant Cell Proliferation Assay Kit, Molecular Probes, Eugene, Oreg., USA). The IC50 was calculated from the regression curve of the titration data.

non-obese (NOD)/Lt mice = assay: Inhibition of Type 1 Diabetes development by VDR ligand administration; format: in vivo; conditions: for mice diabetic by 27 weeks of age: vehicle controls about 70%
Method: The non-obese (NOD)/Lt mice used for the experiments were purchased from Charles River Laboratories (Calco, Italy). All mice were kept under specific pathogen-free conditions. Glucose levels in the tail venous blood were quantified using a EUROFlash (Lifescan, Issy les Moulineaux, France). A diagnosis of diabetes was after two sequential glucose measurements higher than 200 mg/dl.
1,3-Di-O-acetyl-1,25-dihydroxy-16,23Z-diene-26,27-hexafluoro-19-nor-cholecalciferol (2) was dissolved in ethanol (1 mg/ml) and then diluted in miglyol 812. […]

RT112 = assay: Proliferation assay using bladder cancer cell lines, RT112; format: cell-based, human; conditions: Homo sapiens, RT-112, 72 h, 72 h culture, CyQuant proliferation assay
Method: as §1

NHEK = assay: Proliferation assay, NHEK normal human keratinocytes; format: cell-based; conditions: Homo sapiens, NHEK; 72 h culture, CyQuant proliferation assay
Method: as §1

HT 1376 = assay: Proliferation assay using bladder cancer cell lines, HT1376; format: cell-based, human; conditions: Homo sapiens, HT-1376; 72 h culture, CyQuant proliferation assay
Method: as §1

`CC(=O)OC1C/C(=C/C=C2\CCC[C@]3(C)C(C(C)C/C=C\C(O)(C(F)(F)F)C(F)(F)F)=CCC23)C[C@@H](OC(C)=O)C1` (some centres unmarked) [Compound (2), 1,3-Di-O-acetyl-1,25-dihydroxy-16,23Z-diene-26,27-hexafluoro-19-nor-cholecalciferol] was tested. Which IC50 (RT4) did it give?
The IC50 was 20 µM.

What about the “Percent Type 1 Diabetes Mellitus incidence” value (non-obese (NOD)/Lt mice; 0.1 ug/kg p.o., week 8) of the same compound?
The value was 2%.

What about the “Percent Type 1 Diabetes Mellitus incidence” value (non-obese (NOD)/Lt mice; 0.1 ug/kg p.o., week 12) of the same compound?
Its value is 2%.

And the “Percent Type 1 Diabetes Mellitus incidence” value (non-obese (NOD)/Lt mice; 0.1 ug/kg p.o., week 13)?
The value was 2%.

What about the “Percent Type 1 Diabetes Mellitus incidence” value (non-obese (NOD)/Lt mice; 0.1 ug/kg p.o., week 14) of the same compound?
The value was 2%.

What about the “Percent Type 1 Diabetes Mellitus incidence” value (non-obese (NOD)/Lt mice; 0.1 ug/kg p.o., week 15) of the same compound?
The value was 2%.

What about the “Percent Type 1 Diabetes Mellitus incidence” value (non-obese (NOD)/Lt mice; 0.1 ug/kg p.o., week 16) of the same compound?
The value was 2%.

What about the “Percent Type 1 Diabetes Mellitus incidence” value (non-obese (NOD)/Lt mice; 0.1 ug/kg p.o., week 17) of the same compound?
Its value is 10%.

What about the “Percent Type 1 Diabetes Mellitus incidence” value (non-obese (NOD)/Lt mice; 0.1 ug/kg p.o., week 18) of the same compound?
Its value is 10%.

What about the “Percent Type 1 Diabetes Mellitus incidence” value (non-obese (NOD)/Lt mice; 0.1 ug/kg p.o., week 19) of the same compound?
The value was 10%.

What about the “Percent Type 1 Diabetes Mellitus incidence” value (non-obese (NOD)/Lt mice; 0.1 ug/kg p.o., week 20) of the same compound?
Its value is 10%.

What about the “Percent Type 1 Diabetes Mellitus incidence” value (non-obese (NOD)/Lt mice; 0.1 ug/kg p.o., week 21) of the same compound?
The value was 20%.

What about the “Percent Type 1 Diabetes Mellitus incidence” value (non-obese (NOD)/Lt mice; 0.1 ug/kg p.o., week 22) of the same compound?
Its value is 30%.

What about the “Percent Type 1 Diabetes Mellitus incidence” value (non-obese (NOD)/Lt mice; 0.1 ug/kg p.o., week 23) of the same compound?
Its value is 30%.

And the “Percent Type 1 Diabetes Mellitus incidence” value (non-obese (NOD)/Lt mice; 0.1 ug/kg p.o., week 24)?
The value was 40%.

And the “Percent Type 1 Diabetes Mellitus incidence” value (non-obese (NOD)/Lt mice; 0.1 ug/kg p.o., week 25)?
The value was 40%.

What about the “Percent Type 1 Diabetes Mellitus incidence” value (non-obese (NOD)/Lt mice; 0.1 ug/kg p.o., week 26) of the same compound?
Its value is 40%.

And the “Percent Type 1 Diabetes Mellitus incidence” value (non-obese (NOD)/Lt mice; 0.1 ug/kg p.o., week 27)?
The value was 40%.

And the “mice diabetic by 27 weeks of age” value (non-obese (NOD)/Lt mice; 0.1 mg/Kg per os 5×/week from 8 to 16 weeks of age)?
The value was 30%.

And the “mice diabetic by 27 weeks of age” value (non-obese (NOD)/Lt mice; 0.2 mg/Kg per os 5×/week from 8 to 16 weeks of age)?
Its value is 40%.

What about the “Percent Type 1 Diabetes Mellitus incidence” value (non-obese (NOD)/Lt mice; 0.2 mg/kg p.o., week 8) of the same compound?
The value was 1%.

What about the “Percent Type 1 Diabetes Mellitus incidence” value (non-obese (NOD)/Lt mice; 0.2 mg/kg p.o., week 12) of the same compound?
The value was 1%.

And the “Percent Type 1 Diabetes Mellitus incidence” value (non-obese (NOD)/Lt mice; 0.2 mg/kg p.o., week 13)?
Its value is 1%.

What about the “Percent Type 1 Diabetes Mellitus incidence” value (non-obese (NOD)/Lt mice; 0.2 mg/kg p.o., week 14) of the same compound?
The value was 1%.

And the “Percent Type 1 Diabetes Mellitus incidence” value (non-obese (NOD)/Lt mice; 0.2 mg/kg p.o., week 15)?
The value was 1%.

And the “Percent Type 1 Diabetes Mellitus incidence” value (non-obese (NOD)/Lt mice; 0.2 mg/kg p.o., week 16)?
Its value is 1%.

What about the “Percent Type 1 Diabetes Mellitus incidence” value (non-obese (NOD)/Lt mice; 0.2 mg/kg p.o., week 17) of the same compound?
Its value is 1%.

What about the “Percent Type 1 Diabetes Mellitus incidence” value (non-obese (NOD)/Lt mice; 0.2 mg/kg p.o., week 18) of the same compound?
Its value is 1%.

And the “Percent Type 1 Diabetes Mellitus incidence” value (non-obese (NOD)/Lt mice; 0.2 mg/kg p.o., week 19)?
The value was 1%.

What about the “Percent Type 1 Diabetes Mellitus incidence” value (non-obese (NOD)/Lt mice; 0.2 mg/kg p.o., week 20) of the same compound?
Its value is 10%.

What about the “Percent Type 1 Diabetes Mellitus incidence” value (non-obese (NOD)/Lt mice; 0.2 mg/kg p.o., week 21) of the same compound?
Its value is 10%.

What about the “Percent Type 1 Diabetes Mellitus incidence” value (non-obese (NOD)/Lt mice; 0.2 mg/kg p.o., week 22) of the same compound?
Its value is 10%.

What about the “Percent Type 1 Diabetes Mellitus incidence” value (non-obese (NOD)/Lt mice; 0.2 mg/kg p.o., week 23) of the same compound?
Its value is 20%.

And the “Percent Type 1 Diabetes Mellitus incidence” value (non-obese (NOD)/Lt mice; 0.2 mg/kg p.o., week 24)?
Its value is 20%.

And the “Percent Type 1 Diabetes Mellitus incidence” value (non-obese (NOD)/Lt mice; 0.2 mg/kg p.o., week 25)?
The value was 20%.

What about the “Percent Type 1 Diabetes Mellitus incidence” value (non-obese (NOD)/Lt mice; 0.2 mg/kg p.o., week 26) of the same compound?
The value was 30%.

And the “Percent Type 1 Diabetes Mellitus incidence” value (non-obese (NOD)/Lt mice; 0.2 mg/kg p.o., week 27)?
The value was 30%.

And the “incidence of disease compared to controls” value (non-obese (NOD)/Lt mice; NOD/Lt female mice, 0.1 or 0.2 mg/Kg per os)?
Its value is “significantly lower”.

And the IC50 (RT112)?
Its IC50 is 1 µM.

And the IC50 (NHEK)?
The IC50 was 9.8 µM.

And the IC50 (HT 1376)?
The IC50 was 100 µM.
